Molecules are shown by their SMILES.

Assay [1] is described as follows: microbe, parasite or virus in culture. To be noted: Mycobacterium tuberculosis, 96 h, read-out: pIC50 (converted).
Assay [2] is described as follows: microbe, parasite or virus in culture. The conditions noted are these: Mycobacterium tuberculosis, 72 h, read-out: pIC50 (converted).

With `COC(=O)c1ccc(CSc2n[nH]c(C)n2)o1`, the IC50 was 181 µM in assay [1] and 239 µM in assay [2].
`Cc1c(C(=O)Nc2ccc3c(c2)OCCO3)cnn1C`: the IC50 in assay [1] and in assay [2] was over 501 µM throughout.
For the compound `O=C(CCN1CCCCC1)c1ccc2c(c1)OCO2`, the IC50 in assay [1] and in assay [2] was over 501 µM throughout.
In the case of `O=C(CN1CCNCC1)NCCSc1ccc(Cl)cc1`, the IC50 in assay [1] was 110 µM; in assay [2], 177 µM.
With `c1ccc(CNc2cc(-n3cccn3)ncn2)cc1`, the IC50 is over 501 µM in assay [1] and 11.2 µM in assay [2].
For `CN(C(=O)c1ccccc1)S(=O)(=O)c1ccccc1`, the values for the IC50 in assay [1] and in assay [2] were 303 µM and 280 µM, respectively.
On the same counts, the results for `CC(=O)Nc1ccc(N2C(=O)C=CC2=O)cc1` are over 501 µM and 181 µM.
For the compound `CC1CCCN(c2cc(CNS(C)(=O)=O)ccn2)C1` (centres undefined), the IC50 was 277 µM in assay [1] and 449 µM in assay [2].
For the compound `CC1CCCCN1S(=O)(=O)c1ccc(CCN)cc1` (centres undefined), the IC50 in assay [1] and in assay [2] was over 501 µM throughout.
For `Cc1cccc(CC(=O)N2CCn3cnnc3C2)c1`, the IC50 is 187 µM in assay [1] and 170 µM in assay [2].
For `Cc1ccc(C(O)c2cccnc2)cc1` (centres undefined), the IC50 in assay [1] and in assay [2] was over 501 µM each time.
Take `CCOC(=O)CNc1ccc(OC)cc1`: the IC50 was 335 µM in assay [1] and 124 µM in assay [2].
Regarding `O=C(CC1COc2ccccc2O1)N1CCOCC1` (centres undefined), the IC50 in assay [1] is 64 µM; in assay [2], 74.9 µM.
The like results for `Cc1ccc(C(C)C)c(OCC(O)CNCCO)c1` (centres undefined) were, in that order, 127 µM and 158 µM.
With `O=C(CSc1ncnn1-c1ccccc1)N1CCCC1`, the IC50 was 101 µM in assay [1] and 200 µM in assay [2].
In the case of `Fc1ccc2nc(N3CCCNCC3)oc2c1F`, the figures for the IC50 in assay [1] and in assay [2] were 122 µM and 51.6 µM, respectively.
As for `O=C(CN1CCN(c2ccccc2)CC1)N1CCCC1`, the IC50 in assay [1] and in assay [2] was over 501 µM throughout.
On to `CN1CCCN(C(=O)c2ccco2)c2ccccc21`, for which the IC50 was 191 µM in assay [1] and 119 µM in assay [2].
The like results for `COCCc1noc(C2CNC2)n1` were, in that order, 250 µM and 247 µM.
On the same counts, the results for `CCNCC(O)COc1ccc(C)cc1OC` (centres undefined) are 10.5 µM and 218 µM.
As to `CCNC(=O)c1cc(-c2ccc(F)cc2)n[nH]1`, the results for the IC50 in assay [1] and in assay [2] were over 501 µM and 209 µM, respectively.
For the compound `O=C(CSc1cnn[nH]1)Nc1ccc(Cl)cn1`, the IC50 in assay [1] is over 501 µM; in assay [2], 99.4 µM.
Turning to `OCCOCCNCc1ccc(-c2ccc(F)cc2)o1`, the IC50 in assay [1] is 127 µM; in assay [2], 288 µM.
As for `CCCn1nnc(NCc2ccc(OC)cc2)n1`, the IC50 in assay [1] was 25.1 µM; in assay [2], 115 µM.
In the case of `CCCn1nnnc1NCc1ccc(C)s1`, the results for the IC50 in assay [1] and in assay [2] were 51.8 µM and 64.7 µM, respectively.
As for `CN(Cc1cccn1C)C(=O)c1ccccc1F`, the IC50 in assay [1] was 262 µM; in assay [2], 219 µM.
On the same counts, the results for `CCOC(=O)Nc1ccc2c(c1)OCCO2` are 325 µM and over 501 µM.
For the compound `CCOC(=O)C1CCCN(C(=O)c2onc(C)c2Cl)C1` (centres undefined), the IC50 in assay [1] is 303 µM; in assay [2] it was 232 µM.
With `OCCNCCNCc1ccc(-c2ccccc2Cl)o1`, the results for the IC50 in assay [1] and in assay [2] were 34.4 µM and 136 µM, respectively.
Turning to `CCOc1ccc(-c2cc(N)[nH]n2)cc1`, the IC50 in assay [1] is over 501 µM; in assay [2], 232 µM.
As to `CN1CCN(c2ccnc(SCC(N)=O)n2)CC1`, the IC50 in assay [1] is over 501 µM; in assay [2], 289 µM.
For the compound `Nc1ncccc1C(=O)NCCC1=CCCCC1`, the IC50 in assay [1] is over 501 µM; in assay [2] it was 230 µM.
With `OCCNCCNCc1cccc(Cl)c1Cl`, the IC50 was 33.1 µM in assay [1] and 199 µM in assay [2].
Turning to `O=C(NCCOCc1ccccc1)c1ccco1`, the IC50 was 245 µM in assay [1] and 249 µM in assay [2].
Turning to `CC1CCCN(c2nc(C(=O)N3CCOCC3)cs2)C1` (centres undefined), the IC50 is 146 µM in assay [1] and 133 µM in assay [2].
On the same counts, the results for `CC(C)c1ccc(NC(=O)CN)cc1` are 204 µM and 245 µM.
Consider `O=C(CSCCO)Nc1ncc(-c2ccccc2)s1`, for which the IC50 in assay [1] is 272 µM; in assay [2], 174 µM.
For `NCc1nc(-c2ccc(OC(F)(F)F)cc2)no1`, the results for the IC50 in assay [1] and in assay [2] were 190 µM and 70.7 µM, respectively.
On the same counts, the results for `CCOc1ccc(CC(=O)N2CCN(CC)CC2)cc1` are over 501 µM and 371 µM.
Consider `CCCNC(=O)c1nnn(-c2ccccc2OC)c1C`, for which the IC50 in assay [1] was 6.03 µM; in assay [2], 191 µM.
Take `O=C(CCn1cc(Br)cn1)NCc1cccs1`: the results for the IC50 in assay [1] and in assay [2] were 109 µM and 102 µM, respectively.
For the compound `CCCn1ccc(NC(=O)c2cccc(C#N)c2)n1`, the IC50 in assay [1] and in assay [2] was over 501 µM throughout.
On to `CC(O)CNCCNCc1ccc(-c2ccccc2)o1` (centres undefined), for which the IC50 in assay [1] is 113 µM; in assay [2] it was 275 µM.
On the same counts, the results for `O=C(NCC1CCCO1)c1cc(-c2cccs2)on1` (centres undefined) are 54.8 µM and 38.3 µM.
As to `CN(C)C(=O)c1csc(N2CCCCC2)n1`, the IC50 in assay [1] was 58.7 µM; in assay [2], 46.6 µM.
In the case of `O=C(CCn1cccc1)NCc1ccco1`, the figures for the IC50 in assay [1] and in assay [2] were over 501 µM and 96 µM, respectively.
Consider `CNC(=O)c1cc(-c2ccccc2C)n[nH]1`, for which the results for the IC50 in assay [1] and in assay [2] were 180 µM and over 501 µM, respectively.
On the same counts, the results for `NC(=O)CSc1nnc(-c2cc(Br)ccc2O)[nH]1` are 247 µM and 210 µM.
For `CCCNc1cc(-n2cccn2)ncn1`, the IC50 in assay [1] was 280 µM; in assay [2] it was 58.4 µM.
In the case of `COC(=O)N1CCN(c2ccccn2)CC1`, the figures for the IC50 in assay [1] and in assay [2] were 168 µM and over 501 µM, respectively.
As to `CCn1c(SCC(N)=O)nnc1-c1cc(Br)cs1`, the values for the IC50 in assay [1] and in assay [2] were 249 µM and 254 µM, respectively.
Consider `COC(=O)CS(=O)(=O)c1ccc(C)c(Cl)c1`, for which the IC50 in assay [1] is over 501 µM; in assay [2], 249 µM.
On the same counts, the results for `O=C(NCCCn1ncc2ccccc21)C1CC1` are 147 µM and 150 µM.
With `Cc1ccc2c(c1)OC(C)CN2C(=O)c1ccccn1` (centres undefined), the IC50 in assay [1] and in assay [2] was over 501 µM throughout.
For the compound `O=C1C=CC(=O)N1c1ccccc1OC(F)F`, the IC50 in assay [1] was 143 µM; in assay [2] it was 109 µM.
For the compound `NCC1CN(c2nc3cc(Cl)ccc3o2)CCO1` (centres undefined), the values for the IC50 in assay [1] and in assay [2] were 271 µM and 75.2 µM, respectively.
Regarding `COc1ccc(C(N)CO)c2ccccc12` (centres undefined), the figures for the IC50 in assay [1] and in assay [2] were 313 µM and 193 µM, respectively.
The like results for `C1CC(COCCc2noc(C3CNC3)n2)CCO1` were, in that order, 279 µM and 337 µM.
On to `Cc1cc(C(=O)NCc2cccc(F)c2)no1`, for which the IC50 in assay [1] was 308 µM; in assay [2], 52.9 µM.
`Cc1ccc(CNCCOc2ccccn2)o1`: the IC50 is 98.7 µM in assay [1] and over 501 µM in assay [2].
For the compound `COc1ccc(C(=O)CCN(C)C)cc1OC`, the IC50 in assay [1] is 285 µM; in assay [2], 276 µM.
For `Cc1ccc(C(=O)N2CCC3(CCCCO3)CC2)cn1`, the IC50 in assay [1] was over 501 µM; in assay [2], 258 µM.

(Values after ChEMBL document CHEMBL3988442, “University of Dundee, Small-Polar-MMV Screening Library” (2021).)
